The values that follow come from patent US8367084B2, “Oily base for a cosmetic and cosmetic comprising the same” (Kokyu Alcohol Kogyo Co., Ltd., priority 2009, dated 2013).

Common to all, as to assay type: physicochemical
Data set [1] in a line: Hydroxyl value (Cosmetics Raw Material Standard 24). Conditions: ester compound; unit assumed. The source says: Hydroxyl value: determined in accordance with “Cosmetics Raw Material Standard 24, Method for the Determination of a Hydroxyl Value”.
Data set [2] can be described thus: Acid value (Cosmetics Raw Material Standard 18). As to conditions: ester compound. From the text: Acid value: determined in accordance with “Cosmetics Raw Material Standard 18, Method for the Determination of an Acid Value”.
Data set [3] can be described thus: Compatibility of the ester compound with oil agents. Details: key to Compatibility: G: the compound exhibits the compatibility with both the hydrocarbon oil and silicone oil; M: the compound exhibits the compatibility with either of the two; B: the compound exhibits the compatibility with neither of the two. As to conditions: for Compatibility: 90% by mass ester compound in 10% by mass oil agent, appearance after one week at 25 degrees C.; for compatibility with the oil agents (in words): ester compound. How it is done: Compatibility: The oil agents used were as follows:
Hydrocarbon oil: Squalane (OLIVE SQUALANE from Kokyu Alcohol Kogyo Co., Ltd.)
Silicone oil: Cyclomethicone (DOWCORNING TORAY SH 245 FLUID, trademark, from Dow Corning Toray Co., Ltd.)
In 10% by mass of each oil agent indicated above were dissolved 90% by mass of the ester compound obtained from Preparation Examples and Comparative Preparation Examples in a hot water bath at a temperature of 80 to 90 degrees C. for 60 minutes under stirring. Next, the mixture obtained was cooled to 50 degrees C. under stirring and then placed in a temperature-controlled room at 25 degrees C. The appearance after one week was evaluated visually. The indication of the evaluation results is as follows.

The nature of data set [4]: Viscosity by Brookfield Viscometer DV-II+. Conditions: Spindle No. 2, 12 rpm. The protocol:
Viscosity: determined by Brookfield Viscometer DV-II+ (Spindle No. 2, 12 rpm, 25 degrees C.).

On to `CCCCC(CC)C(=O)OCC(COC(=O)C(CC)CCCC)(COC(=O)C(CC)CCCC)COC(=O)C(CC)CCCC` (stereo not shown) [Com. Prep. Ex. 2, pentaerythrityl tetraethylhexanoate], for which the Hydroxyl value in data set [1] is 1.25 mg KOH/g. Moreover, the Acid value in data set [2] came to 0.02. In addition, in data set [3], the Compatibility entry is “M” and the “compatibility with the oil agents (in words)” value is reported as “not good”. Besides, the “Viscosity in mPa · s at 25° C.” value in data set [4] is 109 mPa · s.
Turning to “pentaerythrityl tetraisostearate [Com. Prep. Ex. 3]”, the Hydroxyl value in data set [1] is 0.59 mg KOH/g. This molecule yielded an Acid value in data set [2] of 0.38. Also, in data set [3], the Compatibility result is “M” and the “compatibility with the oil agents (in words)” value is “not good”. In addition, the “Viscosity in mPa · s at 25° C.” value in data set [4] is 290 mPa · s.
